Literature values as cited in patent US20250134887A1, “METHODS OF TREATING PROSTATE CANCER” (AstraZeneca AB, priority 2022, published 2025).

Test system: patients with mCRPC harboring BRCA1, BRCA2 and ATM mutations
Settings: disease had progressed on NHA; vs. enzalutamide or abiraterone; cited from earlier work

O=C(c1cc(Cc2n[nH]c(=O)c3ccccc23)ccc1F)N1CCN(C(=O)C2CC2)CC1 [olaparib, 4-[(3-{[4-(cyclopropane-carbonyl)piperazine-1-yl]carbonyl}-4-fluorophenyl)methyl]-2H-phthalazin-1-one]
imaging-based progression-free survival and overall survival: imaging-based progression-free survival and overall survival benefits
